Source: ChEMBL document CHEMBL4808189, “The combination of sesamol and clofibric acid moieties leads to a novel potent hypolipidemic agent with antioxidant, anti-inflammatory and hepatoprotective activity” (Bioorg Med Chem Lett, 2021)
Calls of active or inactive are those of the source. The calls are words filed in the database; no cut-off is given here.

Legend:
Mus musculus [1] = assay: Upregulation of HO-1 protein expression in Kunming mouse liver at 412 mg/kg, ig for 1 month by western blot analysis; assay type: functional, organism-based; conditions: time 1.0 months
[2] = Hepatotoxicity in Kunming mouse assessed as hepatocyte swelling at 412 mg/kg, ig for 1 month by H and E staining based analysis; assay type: toxicity, organism-based; conditions: in vivo, po, 730 h, time 1 months
Mus musculus [3] = assay: Upregulation of Nrf2 protein expression in Kunming mouse liver nucleus at 412 mg/kg, ig for 1 month by western blot analysis; assay type: functional, organism-based; conditions: time 1.0 months
[4] = Hepatotoxicity in Kunming mouse assessed as induction of oxidative stress by measuring decrease in plasma GSH level at 412 mg/kg, ig for 1 month; assay type: toxicity, organism-based; conditions: in vivo, po, 730 h, time 1 months
[5] = Hepatotoxicity in Kunming mouse assessed as induction of oxidative stress by measuring decrease in plasma CAT level at 412 mg/kg, ig for 1 month; assay type: toxicity, organism-based; conditions: in vivo, po, 730 h, time 1 months
Mus musculus [6] = assay: Hypolipidemic activity in TritonWR1339-induced hyperlipidemic Kunming mouse model assessed as reduction in plasma TC level at 0.362 mmol/kg, ig administered for 7 days; assay type: functional; conditions: po, 168 h, time 7 day
[7] = Upregulation of p-NF-kB-p65 protein expression in Kunming mouse liver at 412 mg/kg, ig for 1 month by western blot analysis; assay type: ADME, organism-based; conditions: in vivo, po, 730 h, time 1 months
[8] = Hepatotoxicity in Kunming mouse assessed as increase in plasma total protein level at 412 mg/kg, ig for 1 month; assay type: toxicity, organism-based; conditions: in vivo, po, 730 h, time 1 months
Mus musculus [9] = assay: Hypolipidemic activity in TritonWR1339-induced hyperlipidemic Kunming mouse model assessed as reduction in plasma TG level at 0.362 mmol/kg, ig administered for 7 days; assay type: functional; conditions: po, 168 h, time 7 day
[10] = Hepatotoxicity in Kunming mouse assessed as increase in plasma alkaline phosphatase level at 412 mg/kg, ig for 1 month; assay type: toxicity, organism-based; conditions: in vivo, po, 730 h, time 1 months
[11] = Hepatotoxicity in Kunming mouse assessed as induction of inflammatory response by measuring upregulation of IL-6 level in liver at 412 mg/kg, ig for 1 month by western blot analysis; assay type: toxicity, organism-based; conditions: in vivo, po, 730 h, time 1 months
[12] = Hepatotoxicity in Kunming mouse assessed as increase in liver coefficient at 412 mg/kg, ig for 1 month; assay type: toxicity, organism-based; conditions: in vivo, po, 730 h, time 1 months
[13] = Acute toxicity in Kunming mouse assessed as change in body weight at 412 mg/kg, ig for 1 month; assay type: organism-based; conditions: in vivo, po, 730 h, time 1 months
[14] = Hepatotoxicity in Kunming mouse assessed as induction of oxidative stress by measuring increase in plasma MDA level at 412 mg/kg, ig for 1 month; assay type: toxicity, organism-based; conditions: in vivo, po, 730 h, time 1 months
[15] = Hepatotoxicity in Kunming mouse assessed as induction of oxidative stress by measuring decrease in plasma superoxide dismutase level at 412 mg/kg, ig for 1 month; assay type: toxicity, organism-based; conditions: in vivo, po, 730 h, time 1 months
[16] = Hepatotoxicity in Kunming mouse assessed as increase in plasma alanine aminotransferase level at 412 mg/kg, ig for 1 month; assay type: toxicity, organism-based; conditions: in vivo, po, 730 h, time 1 months
[17] = Hepatotoxicity in Kunming mouse assessed as cell infiltration in central vein and inflammatory cell infiltration at 412 mg/kg, ig for 1 month by H and E staining based analysis; assay type: toxicity, organism-based; conditions: in vivo, po, 730 h, time 1 months
[18] = Hepatotoxicity in Kunming mouse assessed as increase in hepatic weight at 412 mg/kg, ig for 1 month; assay type: toxicity, organism-based; conditions: in vivo, po, 730 h, time 1 months
[19] = Hepatotoxicity in Kunming mouse assessed as increase in plasma aspartate transaminase level at 412 mg/kg, ig for 1 month; assay type: toxicity, organism-based; conditions: in vivo, po, 730 h, time 1 months
[20] = Hepatotoxicity in Kunming mouse assessed as induction of inflammatory response by measuring upregulation of TNF-alpha level in liver at 412 mg/kg, ig for 1 month by western blot analysis; assay type: toxicity, organism-based; conditions: in vivo, po, 730 h, time 1 months
[21] = Hepatotoxicity in Kunming mouse assessed as cell infiltration in central vein and inflammatory cell infiltration at 300 mg/kg, ig for 1 month by H and E staining based analysis; assay type: toxicity, organism-based; conditions: in vivo, po, 730 h, time 1 months
[22] = Hepatotoxicity in Kunming mouse assessed as induction of inflammatory response by measuring upregulation of IL-6 level in liver at 300 mg/kg, ig for 1 month by western blot analysis; assay type: toxicity, organism-based; conditions: in vivo, po, 730 h, time 1 months
[23] = Hepatotoxicity in Kunming mouse assessed as induction of oxidative stress by measuring decrease in plasma superoxide dismutase level at 300 mg/kg, ig for 1 month; assay type: toxicity, organism-based; conditions: in vivo, po, 730 h, time 1 months
[24] = Hepatotoxicity in Kunming mouse assessed as large areas of hepatocyte swelling, necrosis, loose cytoplasm, nuclear degeneration and dissolution at 300 mg/kg, ig for 1 month by H and E staining based analysis; assay type: toxicity, organism-based; conditions: in vivo, po, 730 h, time 1 months
[25] = Hepatotoxicity in Kunming mouse assessed as increase in plasma alanine aminotransferase level at 300 mg/kg, ig for 1 month; assay type: toxicity, organism-based; conditions: in vivo, po, 730 h, time 1 months
[26] = Hepatotoxicity in Kunming mouse assessed as increase in plasma alkaline phosphatase level at 300 mg/kg, ig for 1 month; assay type: toxicity, organism-based; conditions: in vivo, po, 730 h, time 1 months
[27] = Upregulation of p-NF-kB-p65 protein expression in Kunming mouse liver at 300 mg/kg, ig for 1 month by western blot analysis; assay type: ADME, organism-based; conditions: in vivo, po, 730 h, time 1 months
[28] = Hepatotoxicity in Kunming mouse assessed as induction of inflammatory response by measuring upregulation of TNF-alpha level in liver at 300 mg/kg, ig for 1 month by western blot analysis; assay type: toxicity, organism-based; conditions: in vivo, po, 730 h, time 1 months
[29] = Hepatotoxicity in Kunming mouse assessed as increase in hepatic weight at 300 mg/kg, ig for 1 month; assay type: toxicity, organism-based; conditions: in vivo, po, 730 h, time 1 months
[30] = Hepatotoxicity in Kunming mouse assessed as increase in liver coefficient at 300 mg/kg, ig for 1 month; assay type: toxicity, organism-based; conditions: in vivo, po, 730 h, time 1 months
[31] = Acute toxicity in Kunming mouse assessed as change in body weight at 300 mg/kg, ig for 1 month; assay type: organism-based; conditions: in vivo, po, 730 h, time 1 months
[32] = Hepatotoxicity in Kunming mouse assessed as induction of oxidative stress by measuring decrease in plasma GSH level at 300 mg/kg, ig for 1 month; assay type: toxicity, organism-based; conditions: in vivo, po, 730 h, time 1 months
Mus musculus [33] = assay: Upregulation of HO-1 protein expression in Kunming mouse liver at 300 mg/kg, ig for 1 month by western blot analysis; assay type: functional, organism-based; conditions: time 1.0 months
[34] = Hepatotoxicity in Kunming mouse assessed as increase in plasma total protein level at 300 mg/kg, ig for 1 month; assay type: toxicity, organism-based; conditions: in vivo, po, 730 h, time 1 months
[35] = Hepatotoxicity in Kunming mouse assessed as increase in plasma aspartate transaminase level at 300 mg/kg, ig for 1 month; assay type: toxicity, organism-based; conditions: in vivo, po, 730 h, time 1 months
[36] = Hepatotoxicity in Kunming mouse assessed as induction of oxidative stress by measuring increase in plasma MDA level at 300 mg/kg, ig for 1 month; assay type: toxicity, organism-based; conditions: in vivo, po, 730 h, time 1 months
[37] = Hepatotoxicity in Kunming mouse assessed as induction of oxidative stress by measuring decrease in plasma CAT level at 300 mg/kg, ig for 1 month; assay type: toxicity, organism-based; conditions: in vivo, po, 730 h, time 1 months
Mus musculus [38] = assay: Upregulation of Nrf2 protein expression in Kunming mouse liver nucleus at 300 mg/kg, ig for 1 month by western blot analysis; assay type: functional, organism-based; conditions: time 1.0 months

Compound: CC(C)(Oc1ccc(Cl)cc1)C(=O)Oc1ccc2c(c1)OCO2
- Activity (Mus musculus [1]): Active
- Activity [2]: Toxic
- Activity (Mus musculus [3]): Active
- Activity [4]: Toxic
- Activity [5]: Non-Toxic
- inhibition in vivo at 362 µmol/kg (Mus musculus [6]): 35.1%
- Activity [7]: Non-Toxic
- Activity [8]: Non-Toxic
- inhibition in vivo at 362 µmol/kg (Mus musculus [9]): 38.6%
- Activity [10]: Non-Toxic
- Activity [11]: Non-Toxic
- Activity [12]: Non-Toxic
- Activity [13]: Non-Toxic
- Activity [14]: Non-Toxic
- Activity [15]: Non-Toxic
- Activity [16]: Non-Toxic
- Activity [17]: Non-Toxic
- Activity [18]: Non-Toxic
- Activity [19]: Non-Toxic
- Activity [20]: Non-Toxic

Compound: CCOC(=O)C(C)(C)Oc1ccc(Cl)cc1 [CLOFIBRATE]
- Activity [21]: Toxic
- Activity [22]: Toxic
- Activity [23]: Toxic
- Activity [24]: Toxic
- Activity [25]: Toxic
- Activity [26]: Toxic
- inhibition in vivo at 362 µmol/kg (Mus musculus [6]): 21.2%
- Activity [27]: Toxic
- Activity [28]: Toxic
- Activity [29]: Toxic
- Activity [30]: Toxic
- inhibition in vivo at 362 µmol/kg (Mus musculus [9]): 25.5%
- Activity [31]: Non-Toxic
- Activity [32]: Toxic
- Activity (Mus musculus [33]): inactive
- Activity [34]: Toxic
- Activity [35]: Toxic
- Activity [36]: Toxic
- Activity [37]: Toxic
- Activity (Mus musculus [38]): inactive
